Measured values from PMC8947439, “Antimicrobial Properties of a Peptide Derived from the Male Fertility Factor kl2 Protein of Drosophila melanogaster” (Current Issues in Molecular Biology, 2022).
Residues, ends and D or L forms follow the SMILES beside them.

Legend:
B. subtilis ATCC 9372 = type: cell-based, Bacillus subtilis
Description: (§1) Bacteria were grown in brain heart infusion (BHI) medium broth at 37 °C. For the microdilution assay (MDA) and minimal inhibitory concentration (MIC) assay, bacteria in the mid-logarithmic phase were harvested and diluted to 4 × 10^5 CFU/mL with Dulbecco’s PBS. Bacteria were incubated with a series of 2-fold dilutions of indicated peptides or PBS for 2 h. The number of viable bacteria were enumerated by counting the colony-forming units (CFU). The MIC was defined as the lowest antimicrobial concentration which prevents the visible growth of bacteria.

E. coli HB101 [1] = type: cell-based, Escherichia coli; conditions: HB101, 2 h
Description: as §1

E. coli HB101 [2] = experiment: microdilution assay (MDA), viable counts (CFU); type: cell-based, Escherichia coli; conditions: peptide 100 μM, 2 h, 4 × 10^5 CFU/mL in Dulbecco's PBS, CFU counting, N = 3
Description: as §1

S. aureus 8325-4 = experiment: microdilution assay (MDA), viable counts (CFU); type: cell-based, Staphylococcus aureus; conditions: peptide 100 μM, 2 h, 4 × 10^5 CFU/mL in Dulbecco's PBS, CFU counting, N = 3
Description: as §1

With `CC[C@H](C)[C@H](NC(=O)[C@H](CC(C)C)NC(=O)[C@H](C)NC(=O)[C@H](CCCNC(=N)N)NC(=O)[C@H](Cc1ccccc1)NC(=O)[C@H](CC(C)C)NC(=O)[C@H](CCCCN)NC(=O)[C@@H](N)CCCNC(=N)N)C(=O)N[C@@H](CCC(N)=O)C(=O)N[C@@H](C)C(=O)N[C@@H](CS)C(=O)N[C@@H](CC(=O)O)C(=O)N[C@@H](CCCNC(=N)N)C(=O)N[C@@H](CCCCN)C(=O)O` [MFF-p1] (H-RKLFRALIQACDRK-OH) the percent of killing (B. subtilis ATCC 9372; ATCC 9372, 2 h, 100 μM) was “around 90%” and the MIC (E. coli HB101 [1]) was 6 to 12.5 µM.

“LKDVFRDFIVVCQK [Z-p1, peptide that is a part of the Zizimin protein of Drosophila melanogaster]” was tested, and the “antimicrobial activity, inhibition of viable counts” value (“antimicrobial activity, inhibition” below) (E. coli HB101 [2]) was “did not demonstrate antimicrobial activity”, the “antimicrobial activity, inhibition” value (B. subtilis ATCC 9372; peptide 100 μM, 2 h, 4 × 10^5 CFU/mL in Dulbecco's PBS, CFU counting, N = 3) was “did not demonstrate antimicrobial activity” and the “antimicrobial activity, inhibition” value (S. aureus 8325-4) was “did not demonstrate antimicrobial activity”.
